Test results: PMC5760531, “Action Potential Recording and Pro-arrhythmia Risk Analysis in Human Ventricular Trabeculae” (Frontiers in Physiology, 2018)

Test system: human ventricular trabeculae
Experiment: Action potential recording and pro-arrhythmic score analysis in human ventricular trabeculae (hVT);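 further: sharp microelectrode action potential recordings at 37°C in Tyrode-perfused trabeculae, 4 cumulative concentrations each applied 31 min, values averaged over last 30 APs, vehicle 0.1% DMSO as control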
Details: for Refractoriness Escape (raw data) / Beat Escape (raw data) / EADs (raw data): n=4 trabeculae

## Nc1nnc(-c2cccc(Cl)c2Cl)c(N)n1 [LAMOTRIGINE, Lamotrigine]
1Hz, 59-FOLD free ETPC (17µM)
  Refractoriness Escape (raw data): 0
2Hz, 0.6-FOLD free ETPC (17µM)
  AMAX (average raw data): 97
  AMAX percentage change compared to vehicle control: -7%
  APD30 (average raw data): 107
  APD30 percentage change compared to vehicle control: 2%
  APD50 (average raw data): 149
  APD50 percentage change compared to vehicle control: 3%
  APD90 (average raw data): 232
  APD90 percentage change compared to vehicle control: 2%
  Alternans (average raw data): 0.95
  Alternans percentage change compared to vehicle control: -59%
  Beat Escape percentage change compared to vehicle control: 0%
  EADs percentage change compared to vehicle control: 0%
  ERP (average raw data): 0.46
  ERP percentage change compared to vehicle control: 4%
  Max Dispersion (average raw data): 6.98
  Max Dispersion percentage change compared to vehicle control: 7%
  RMP (average raw data): -82
  RMP percentage change compared to vehicle control: -3%
  Refractoriness Escape percentage change compared to vehicle control: 0%
  STV (average raw data): 0.58
  Triangulation (average raw data): 124
  Triangulation percentage change compared to vehicle control: 2%
  Beat Escape (raw data): 0
  EADs (raw data): 0
  Refractoriness Escape (raw data): 0
2Hz, 6-FOLD free ETPC (17µM)
  AMAX (average raw data): 103
  AMAX percentage change compared to vehicle control: -2%
  APD30 (average raw data): 103
  APD30 percentage change compared to vehicle control: -1%
  APD50 (average raw data): 139
  APD50 percentage change compared to vehicle control: -3%
  APD90 (average raw data): 221
  APD90 percentage change compared to vehicle control: -3%
  Alternans (average raw data): 4.34
  Alternans percentage change compared to vehicle control: 90%
  Beat Escape percentage change compared to vehicle control: 25%
  EADs percentage change compared to vehicle control: 0%
  ERP (average raw data): 0.41
  ERP percentage change compared to vehicle control: -7%
  Max Dispersion (average raw data): 10.50
  Max Dispersion percentage change compared to vehicle control: 62%
  RMP (average raw data): -87
  RMP percentage change compared to vehicle control: 3%
  Refractoriness Escape percentage change compared to vehicle control: 0%
  STV (average raw data): 2.93
  Triangulation (average raw data): 117
  Triangulation percentage change compared to vehicle control: -4%
  Beat Escape (raw data): 1
  EADs (raw data): 0
  Refractoriness Escape (raw data): 0
2Hz, 18-FOLD free ETPC (17µM)
  AMAX (average raw data): 85
  AMAX percentage change compared to vehicle control: -16%
  APD30 (average raw data): 110
  APD30 percentage change compared to vehicle control: 4%
  APD50 (average raw data): 139
  APD50 percentage change compared to vehicle control: -4%
  APD90 (average raw data): 227
  APD90 percentage change compared to vehicle control: 2%
  Alternans (average raw data): 34.70
  Alternans percentage change compared to vehicle control: 1417%
  Beat Escape percentage change compared to vehicle control: 100%
  EADs percentage change compared to vehicle control: 0%
  ERP (average raw data): 0.33
  ERP percentage change compared to vehicle control: -25%
  Max Dispersion (average raw data): 42.23
  Max Dispersion percentage change compared to vehicle control: 550%
  RMP (average raw data): -90
  RMP percentage change compared to vehicle control: 10%
  Refractoriness Escape percentage change compared to vehicle control: 0%
  STV (average raw data): 18.59
  Triangulation (average raw data): 117
  Triangulation percentage change compared to vehicle control: -1%
  Beat Escape (raw data): 4
  EADs (raw data): 0
  Refractoriness Escape (raw data): 0
2Hz, 59-FOLD free ETPC (17µM)
  AMAX (average raw data): 48
  AMAX percentage change compared to vehicle control: -52%
  APD30 (average raw data): 106
  APD30 percentage change compared to vehicle control: 4%
  APD50 (average raw data): 145
  APD50 percentage change compared to vehicle control: 7%
  APD90 (average raw data): 268
  APD90 percentage change compared to vehicle control: 34%
  Alternans (average raw data): 3.93
  Alternans percentage change compared to vehicle control: 72%
  Beat Escape percentage change compared to vehicle control: 100%
  EADs percentage change compared to vehicle control: 0%
  ERP (average raw data): 0.41
  ERP percentage change compared to vehicle control: -7%
  Max Dispersion (average raw data): 21.90
  Max Dispersion percentage change compared to vehicle control: 237%
  RMP (average raw data): -74
  RMP percentage change compared to vehicle control: -6%
  Refractoriness Escape percentage change compared to vehicle control: 0%
  STV (average raw data): 2.81
  Triangulation (average raw data): 162
  Triangulation percentage change compared to vehicle control: 64%
  Beat Escape (raw data): 4
  EADs (raw data): 0
  Refractoriness Escape (raw data): 0
At 10-fold human free ETPC, score >10 unsafe, <10 safe
  TdP identification by pro-arrhythmic score: TdP positive
At 100, 300, and 1,000 μM
  pro-arrhythmic score: above 40
At therapeutic exposure
  pro-arrhythmic score: below 10
